Among the data in patent US20250388605A1, “HETEROBIFUNCTIONAL COMPOUNDS AND METHODS OF TREATING DISEASE” (Halda Therapeutics OpCo, Inc., priority 2022, published 2025) are Ki and GI50 values, retold here.

The target in assay [1] is T1, androgen receptor (Homo sapiens, UniProt P10275).
T1 construct: host or cells: unnamed cells, cytosolic fraction
T1 sequence (P10275 1-920): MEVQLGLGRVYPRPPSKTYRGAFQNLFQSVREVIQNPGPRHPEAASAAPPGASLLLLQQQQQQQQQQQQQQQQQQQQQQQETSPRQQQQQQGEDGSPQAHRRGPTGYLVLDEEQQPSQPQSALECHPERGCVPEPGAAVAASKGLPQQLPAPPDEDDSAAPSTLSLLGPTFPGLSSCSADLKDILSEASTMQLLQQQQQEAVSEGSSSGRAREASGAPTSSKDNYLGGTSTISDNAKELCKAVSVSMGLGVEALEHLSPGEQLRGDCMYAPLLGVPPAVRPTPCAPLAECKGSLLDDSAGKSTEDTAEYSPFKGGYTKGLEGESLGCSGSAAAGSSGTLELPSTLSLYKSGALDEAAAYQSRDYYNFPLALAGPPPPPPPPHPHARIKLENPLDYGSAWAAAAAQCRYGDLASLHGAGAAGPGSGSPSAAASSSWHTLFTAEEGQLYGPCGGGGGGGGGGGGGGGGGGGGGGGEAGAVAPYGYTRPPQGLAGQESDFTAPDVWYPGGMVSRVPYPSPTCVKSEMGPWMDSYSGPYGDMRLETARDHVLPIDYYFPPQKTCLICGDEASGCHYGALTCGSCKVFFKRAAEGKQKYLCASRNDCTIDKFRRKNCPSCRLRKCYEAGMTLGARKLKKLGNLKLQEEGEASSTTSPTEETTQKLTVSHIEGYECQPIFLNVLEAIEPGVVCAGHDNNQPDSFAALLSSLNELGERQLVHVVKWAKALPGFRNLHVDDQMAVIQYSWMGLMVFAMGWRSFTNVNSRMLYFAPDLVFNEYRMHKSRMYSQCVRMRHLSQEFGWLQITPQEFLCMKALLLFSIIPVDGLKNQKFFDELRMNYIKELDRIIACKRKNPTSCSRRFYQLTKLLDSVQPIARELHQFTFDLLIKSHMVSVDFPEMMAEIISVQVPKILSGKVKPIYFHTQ
The assay is described as follows: Assay for binding affinity to androgen receptor ([3H]methyltrienolone radioligand competition, cell cytosol). As to conditions: binding to the androgen receptor, 1 nM [3H]methyltrienolone, 24 hr at 4° C. The procedure:
Fractions of cell cytosol ([…]) were incubated for 24 hr at 4° C. with 1 nM [^3H]methyltrienolone in the absence or presence of the test compound in a buffer containing 25 mM Hepes-Tris (pH 7.4), 1 mM EDTA, 10 mM Na2MoO4, 2 mM DTT, 5 μM triamcinolone acetonide, and 10% glycerol. Nonspecific binding was determined in the presence of […] testosterone. Following incubation, the samples were filtered rapidly under vacuum through glass fiber filters (GF/B, Packard) presoaked with 0.3% PEI and rinsed several times with ice-cold 50 mM Tris-HCl using a 96-sample cell harvester (Unifilter, Packard). The filters were dried then counted for radioactivity in a scintillation counter (Topcount, Packard) using a scintillation cocktail (Microscint 0, Packard). The results are expressed as a percent inhibition of the control radioligand specific binding. The standard reference compound is testosterone, which is tested in each experiment at several concentrations to obtain a competition curve from which its IC50 is calculated.

The subject of assay [2] is T-Rex 293 cell line SC3 cells having increased expression of androgen receptor protein due to exposure to doxycycline. In words: Cellular growth inhibition, T-Rex 293 SC3 cells with doxycycline (increased androgen receptor expression), CellTiter-Glo. The format is cell-based. Conditions: T-Rex 293 SC3 cells with 10 ng/mL doxycycline (increased androgen receptor expression), 72 hours, CellTiter-Glo 2.0. The gist of the method: (§1)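 Growth inhibition is measured in an inducible AR-expressing T-Rex 293 clone, SC3, cultured with or without 10 ng/mL doxycycline in hormone-depleted medium. Test compounds are applied for 72 hours. GI50 values derive from CellTiter-Glo 2.0 signal fitted by four-parameter regression.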
For orientation: In ATP-based viability assays light output follows the ATP content of the culture.

Assay [3] concerns T-Rex 293 cell line SC3 cells lacking increased expression of androgen receptor protein. In words: Cellular growth inhibition, T-Rex 293 SC3 cells without doxycycline (no increased androgen receptor expression), CellTiter-Glo. The format is cell-based. Conditions: T-Rex 293 SC3 cells not exposed to doxycycline (no increased androgen receptor expression), 72 hours. Put shortly:
as §1

Assay [4] deals with VCaP cells. In words: Cellular growth inhibition assay for VCaP cells, CellTiter-Glo. It counts as cell-based, human. Conditions: Homo sapiens, 72 hours. The gist of the method:
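GI50 values come from four-parameter curve fits of luminescence data normalized to a zero baseline. Compound, in medium with 0.5% DMSO, was added one day after plating and left for 72 h before CellTiter-Glo 2.0 addition.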

In assay [5] the test system is T47D cells. The assay is described as follows: Cellular Growth Inhibition Assay for T47D Cells (CellTiter-Glo). It counts as cell-based, human. Conditions: Homo sapiens, 72 hours. The gist of the method: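 GI50 values derive from four-parameter regression of CellTiter-Glo 2.0 luminescence, using zero luminescence as baseline. Human breast cancer T47D cells (3000/well; DMEM, 10% FBS, 0.2 units/mL insulin) were exposed for 72 h to compound dilutions at 0.5% DMSO, with dosing starting 24 h after seeding.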

Assay [6] has as its target T2, progesterone receptor (Homo sapiens, UniProt P06401).
T2 sequence (P06401 679-933 limits assumed): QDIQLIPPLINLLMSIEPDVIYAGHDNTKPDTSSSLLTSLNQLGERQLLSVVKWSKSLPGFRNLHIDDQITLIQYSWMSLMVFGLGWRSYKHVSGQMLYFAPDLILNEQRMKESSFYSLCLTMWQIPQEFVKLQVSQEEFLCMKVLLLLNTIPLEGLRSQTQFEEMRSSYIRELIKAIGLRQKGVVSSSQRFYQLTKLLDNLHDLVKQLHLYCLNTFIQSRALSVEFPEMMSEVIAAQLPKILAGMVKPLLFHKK
In words: PR Human Progesterone NHR Binding (Agonist Radioligand) Assay, [3H]progesterone, T47D cytosolic fractions. As to conditions: 0.5 nM [3H]progesterone, 1 hour at 4° C. The method, then:
Exemplary compounds were tested for ability to bind to the progesterone receptor.
Compounds were tested using the PR Human Progesterone NHR Binding (Agonist Radioligand) Assay, Cerep at Eurofins Discovery using a modified version of the protocol from Sarup et al. (Cancer Res 1988; 48:5071-5078). Briefly, cytosolic fractions of T47D cells were incubated with 0.5 nM [^3H]progesterone for 1 hour at 4° C. in the absence or presence of the test compound. Nonspecific binding was determined in the presence of […] promegestone. Reactions were subjected to scintillation counting. Results are expressed as a percent inhibition of the control radioligand specific binding.

On to `CCS(=O)(=O)Nc1ccc(Oc2cccc(OCCOC3CCN(c4cnc(C(=O)N[C@H]5C(C)(C)[C@H](Oc6ccc(C#N)c(Cl)c6)C5(C)C)nc4)CC3)c2)c(-c2cn(C)c(=O)c3[nH]ccc23)c1` [Compound I-73, N-((1r, 3r)-3-(3-chloro-4-cyanophenoxy)-2,2,4,4-tetramethylcyclobutyl)-5-(4-(2-(3-(4-(ethylsulfonamido)-2-(6-methyl-7-oxo-6,7-dihydro-1H-pyrrolo[2,3-c]pyridin-4-yl)phenoxy)phenoxy)ethoxy)piperidin-1-yl)pyrimidine-2-carboxamide], for which, in assay [1], the Ki – broadly, the equilibrium dissociation constant of an inhibitor or competing ligand from its target – is 50 to 500 nM. Also, the 50% growth inhibitory concentration (GI50) in assay [2], in assay [3] and in assay [4] was less than 500 nM throughout.

For `Cn1cc(-c2cc(C(C)(C)O)ccc2Oc2ccc(N3CC(CC4CCN(c5cnc(C(=O)N[C@H]6C(C)(C)[C@H](Oc7ccc(C#N)c(C(F)(F)F)c7)C6(C)C)cn5)CC4)C3)cc2)c2cc[nH]c2c1=O` [Compound I-373], the GI50 (commonly the concentration giving 50% growth inhibition) in assay [5] was less than 500 nM. The compound also yielded a Ki in assay [6] of 500 to 2500 nM.
